Measured values published in ChEMBL document CHEMBL1150372, “Synthesis, fluorine-18 radiolabeling, and in vitro characterization of 1-iodophenyl-N-methyl-N-fluoroalkyl-3-isoquinoline carboxamide derivatives as potential PET radioligands for imaging peripheral benzodiazepine receptor” (Bioorg Med Chem, 2008).

How the values were obtained:
Translocator protein [1] = molecular target: Translocator protein (Rattus norvegicus, UniProt P16257); test: Displacement of [3H]PK11195 from PBR in rat kidney mitochondrial membrane; assay type: cell membranes
Translocator protein [2] = molecular target: Translocator protein (Homo sapiens, UniProt P30536); test: Binding affinity to human PBR
[3] = Lipophilicity, log P at pH 7.4; assay type: physicochemical; details: buffer

Chain of Translocator protein (Rattus norvegicus, UniProt P16257) (P16257 whole entry, looked up): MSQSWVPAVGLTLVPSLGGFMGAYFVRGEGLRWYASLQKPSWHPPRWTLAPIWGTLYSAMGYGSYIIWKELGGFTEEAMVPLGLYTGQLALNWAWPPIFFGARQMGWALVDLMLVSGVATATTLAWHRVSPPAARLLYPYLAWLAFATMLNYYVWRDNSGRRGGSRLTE
Chain of Translocator protein (Homo sapiens, UniProt P30536) (P30536 whole entry): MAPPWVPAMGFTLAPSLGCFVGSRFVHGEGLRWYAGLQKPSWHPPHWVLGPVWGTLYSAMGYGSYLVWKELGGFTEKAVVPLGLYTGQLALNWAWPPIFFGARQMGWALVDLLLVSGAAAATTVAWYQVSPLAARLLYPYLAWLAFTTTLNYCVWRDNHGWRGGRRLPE

In the case of `CN(CCCF)C(=O)c1cc2ccccc2c(-c2ccccc2I)n1`, the IC50 (Translocator protein [1]) is reported as 0.28 nM.

`CN(CCCF)C(=O)c1cc2ccccc2c(-c2ccc(I)cc2)n1` gave an IC50 (Translocator protein [1]) of 66.5 nM.

Compound `CN1C(=O)CN=C(c2ccc(Cl)cc2)c2cc(Cl)ccc21` [RO-54864] has a Kd (Translocator protein [2]) of 6 nM.

Work on `CN(CCC[18F])C(=O)c1cc2ccccc2c(-c2ccccc2I)n1` yielded a logD [3] of 3.

For `CN(CCF)C(=O)c1cc2ccccc2c(-c2ccccc2I)n1`, the IC50 (Translocator protein [1]) was 445 nM.

`CN(CCCF)C(=O)c1cc2ccccc2c(-c2cccc(I)c2)n1` gave an IC50 (Translocator protein [1]) of 1.4 nM.

Work on `CCCCCCN(CCCCCC)C(=O)Cc1c(-c2ccc(F)cc2)[nH]c2ccccc12` yielded a Kd (Translocator protein [2]) of 4 nM.
